Measurements: patent publication US20260167662A1, “MODIFIED […] GUANIDINO STRUCTURE IN BRIDGED PART AND METHOD FOR PRODUCING OLIGO[…] SAME” (LUXNA BIOTECH CO., LTD., priority 2022, published 2026)

Test: Stability test of amidite: 0.1 M solution in acetonitrile stored in the dark at room temperature, analysed by UHPLC
Format: physicochemical
Details: 0.1 M in acetonitrile
Procedure: • Device used: ACQUITY Arc UHPLC system manufactured by Waters Corporation • Column: Xbridge BEH C18, 2.5 μm, 3.0×100 mm, Column XP manufactured by Waters Corporation • Mobile phase: Gradient
• Flow rate: 0.85 mL/min • Detection: PDA (200 to 400 nm) • Column temperature: 30° C. • Analysis time: 10.00 min
The amidite a3 (purity was 96.3%) obtained in Example 1, and an amidite a3′ (purity was 90.9%) synthesized according to the method described in Patent Document 5 were each dissolved in acetonitrile to prepare a 0.1 M solution.
Of the two 0.1 M solutions obtained, the solution containing the amidite a3 of Example 1 was stored in the dark at room temperature for 7 days. On the other hand, the solution containing the amidite a3′ of Patent Document 5 was stored in the dark at room temperature for 17 hours.
The UHPLC results of the amidites a3 and a3′ contained respectively in the stored solutions are shown in Tables 7 and 8, and the UHPLC-MS results of the amidites a3 and a3′ contained respectively in the stored solutions are shown in FIGS. 12 and 13.

SMILES	% Area of main UHPLC peak after storage (stored for 7 days, retention time 7.335 min, purity before storage 96.3%) [%]	Stability in stored solution, compared by UHPLC peaks (a3 stored 7 days versus a3′ stored 17 hours)	% Area of main UHPLC peak after storage (stored for 17 hours, retention time 5.866 min, purity before storage 90.9%) [%]
COc1ccc(C(OC[C@]23CN(/C(=N/C(=O)OCC4c5cc(C(C)(C)C)ccc5-c5ccc(C(C)(C)C)cc54)NC(C)(C)C)C(C2OP(OCCC#N)N(C(C)C)C(C)C)[C@H](n2cc(C)c(=O)[nH]c2=O)O3)(c2ccccc2)c2ccc(OC)cc2)cc1 (stereo partly drawn) [amidite a3, di-tBu-Fmoc-GuNA[t-Bu]-T amidite]	95.21	more stable	–
COc1ccc(C(OC[C@@]23CN(/C(=N/C(=O)OCC4c5ccccc5-c5ccccc54)NC(C)(C)C)C([C@H](n4cc(C)c(=O)[nH]c4=O)O2)[C@H]3OP(OCCC#N)N(C(C)C)C(C)C)(c2ccccc2)c2ccc(OC)cc2)cc1 (stereo partly drawn) [amidite a3′, reference compound]	–	–	76.00
